Tested on: E. coli ATCC 10536
Assay: In-vitro antibacterial efficacy (bacteria remaining after 4 hours contact, plate count)
Type: cell-based
Details: contact time 4 hours at 37° C.
Protocol: The following samples were tested for in-vitro antibacterial efficacy using the below mentioned protocol
Sodium phosphate buffer 10 mM for culture preparation pH 7.4
The test organism was subcultured from the glycerol stock (stored at −70° C.) onto a TSA slant and incubated at 37° C. for 18 to 24 hours. The slant was stored in a refrigerator for a maximum of two weeks after which a fresh slant was prepared.
The test organisms were streaked from TSA slants onto petri plates containing TSA and incubated at 37° C. for 21 to 22 hours before use.
The bacterial inoculums were prepared corresponding to 10^6 cells in 10 mM Sodium Phosphate Buffer from the above plate.
The OD of culture was adjusted to 0.8 for E. coli, to give 10^8 cells/ml. Once the bacterial inoculums corresponding to 10^8 cells is prepared in sodium phosphate buffer, it is serially diluted to 10^6 cells ([…] in 10 mM sodium phosphate buffer)
135 μl bacterial inoculums (from 10^6 CFU/ml) was taken for all the treatments in a reaction volume of 300 μl (in a microtiter plate/96 well plate).
15 μl of 100 mM buffer was taken for all controls and treatments so that the final conc. corresponds to ˜5 mM in all the reactions.
The respective compounds/actives to be tested were taken and made up to a volume of 300 μl with autoclaved distilled water.
Note: Each treatment is kept in duplicates.
The microtiter plate was incubated at 37° C. for a contact time of 4 hours and then plated on TSA after required serial dilutions in neutralizer D/E to study bacterial kill.
Plates were incubated overnight for E. coli
The colonies were counted to estimate the bacteria remaining and thereby the log kill.
Experiments similar to the ones carried out for thymol+THPE were carried out with carvacrol+THPE. The antibacterial efficacy was measured in vitro as detailed above for examples 1 and A-C.
Experiments similar to the ones carried out for thymol+THPE were carried out with eugenol+THPE. The antibacterial efficacy was measured in vitro as detailed above for examples 1 and A-C.

[1] = Table 1, thymol/THPE series, culture control 6.36
[2] = Table 4, carvacrol/THPE series, culture control 6.41
[3] = Table 5, eugenol/THPE series, culture control 6.23

**Q.** For `CC(O)CN(CCN(CC(C)O)CC(C)O)CC(C)O` (stereo not shown) [B, tetrahydroxypropyl ethylenediamine], which “Average of bacteria remaining” value [1] is on record?
**A.** 5.98 log cfu/ml

**Q.** How did the “Average of bacteria remaining” value [1] turn out when `Cc1ccc(C(C)C)c(O)c1` [C, thymol] was run?
**A.** 6.26 log cfu/ml

**Q.** With `Cc1ccc(C(C)C)cc1O` [F, carvacrol] as the compound, how does the “Average of bacteria remaining” value [2] read?
**A.** 6.12 log cfu/ml

**Q.** With `CC(O)CN(CCN(CC(C)O)CC(C)O)CC(C)O` (stereo not shown) [G, tetrahydroxypropyl ethylenediamine] as the compound, how does the “Average of bacteria remaining” value [2] read?
**A.** 5.97 log cfu/ml

**Q.** Which “Average of bacteria remaining” value [2] does the source give for `CC(O)CN(CCN(CC(C)O)CC(C)O)CC(C)O` (stereo not shown) [H, tetrahydroxypropyl ethylenediamine] here?
**A.** 5.45 log cfu/ml

**Q.** `C=CCc1ccc(O)c(OC)c1` [J, Eugenol] was tested. Which “Average of bacteria remaining” value [3] did it give?
**A.** 6.15 log cfu/ml

**Q.** `CC(O)CN(CCN(CC(C)O)CC(C)O)CC(C)O` (stereo not shown) [K, tetrahydroxypropyl ethylenediamine] was tested. Which “Average of bacteria remaining” value [3] did it give?
**A.** 5.44 log cfu/ml

Source: US12349677B2, “Antimicrobial composition” (CONOPCO, INC., priority 2018, dated 2025)
